The record followed here is patent publication US6107324A, “5-HT2A receptor inverse agonists” (priority 1999, dated 2000).

In experiment [1] the target is T1, constitutively active mutant human 5HT2C receptor AP-1 (Homo sapiens, UniProt P28335, S310K).
T1 sequence (P28335 33-458 S310K): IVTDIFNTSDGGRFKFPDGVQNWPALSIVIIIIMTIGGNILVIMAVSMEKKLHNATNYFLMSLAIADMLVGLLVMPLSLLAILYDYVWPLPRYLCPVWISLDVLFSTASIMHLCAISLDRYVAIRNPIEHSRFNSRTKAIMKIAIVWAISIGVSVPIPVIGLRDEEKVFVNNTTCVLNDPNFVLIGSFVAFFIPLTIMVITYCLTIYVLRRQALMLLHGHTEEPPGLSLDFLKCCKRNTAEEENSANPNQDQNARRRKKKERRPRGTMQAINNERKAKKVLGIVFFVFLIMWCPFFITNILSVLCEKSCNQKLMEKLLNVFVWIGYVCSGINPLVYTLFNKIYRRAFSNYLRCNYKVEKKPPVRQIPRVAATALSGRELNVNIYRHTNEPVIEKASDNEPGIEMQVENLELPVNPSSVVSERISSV
Briefly: [35S]GTPγS binding assay, constitutively active mutant human 5HT2C receptor AP-1. The format is biochemical. For orientation: GTPγS is a poorly hydrolysed GTP analogue; its binding reports G protein activation.

The test system of experiment [2] is human mutated 5HT2A receptor, AP-3. In words: Inositol phosphate (IP3) accumulation assay, AP-3. Type of experiment: cell-based. The conditions noted are these: preferred compounds tables (μM).
Experiment [3] relates to 5HT2A receptor (cerebral cortex). In words: I125-LSD displacement from rat brain sections, cerebral cortex (5HT2A). The format is binding, Sprague-Dawley rats. Particulars: 1 micromolar compound, 1 nanomolar I125-LSD, 30 minutes room temperature.
In experiment [4] the test system is Adult male Sprague-Dawley rats. In words: Amphetamine-stimulated locomotor activity in rats. The format is in vivo. The text has this: A 5HT2A receptor antagonist or inverse agonist is expected to decrease amphetamine-stimulated locomotion without affecting baseline locomotion. See, for example, Soresnon, et al, 266(2) J. Pharmacol. Exp. Ther. 684 (1993). […] For the following study, the following parameters and protocol were utilized:
Adult male Sprague-Dawley rats were utilized for these studies. Animals were housed in groups of 2-3 in hanging plastic cages with food and water available at all times. Animals were weighed and handled for at least one day prior to surgery and throughout the studies. For these studies, Vehicle consisted of 90% ethanol (100%) and 10% water.
A San Diego Instruments Flex Field apparatus was used to quantify baseline and amphetamine-stimulated locomotor activity. This apparatus consists of four 16"×16" clear plastic open fields. Photocell arrays (16 in each dimension) interfaced with a personal computer to automatically quantify activity. Several measures of activity can be assessed with the apparatus, including total photocell beam breaks. Animals (vehicle control and Compound treated) were injected s.c. 30 minutes prior to initiation of analysis. Following this 30 minute period, animals were placed individually into an open field and baseline activity was assessed for 30 minutes (habituation phase). […]

In experiment [5] the target is T2, Wild Type Human 5HT2A Receptor (Homo sapiens, UniProt P28223).
T2 construct: expressed in transfected cells; host or cells: COS-7 cells, transient transfection (pCMV); membranes
T2 sequence (P28223 whole entry T25N/H452Y): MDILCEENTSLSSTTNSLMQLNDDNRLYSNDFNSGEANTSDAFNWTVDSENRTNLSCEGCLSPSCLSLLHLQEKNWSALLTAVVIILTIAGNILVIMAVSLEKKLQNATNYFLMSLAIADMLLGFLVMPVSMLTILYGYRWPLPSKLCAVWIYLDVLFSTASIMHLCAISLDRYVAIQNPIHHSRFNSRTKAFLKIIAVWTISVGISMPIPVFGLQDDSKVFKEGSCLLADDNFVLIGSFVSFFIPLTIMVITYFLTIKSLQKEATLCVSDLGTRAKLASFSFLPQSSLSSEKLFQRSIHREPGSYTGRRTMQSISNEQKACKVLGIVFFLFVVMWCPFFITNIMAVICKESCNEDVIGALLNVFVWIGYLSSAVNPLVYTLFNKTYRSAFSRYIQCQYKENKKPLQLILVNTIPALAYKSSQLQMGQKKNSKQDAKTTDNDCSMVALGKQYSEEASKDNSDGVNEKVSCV
In words: [3H]LSD competitive binding assay, wild type 5HT2A.

Experiment [6] has as its target T3, endogenous human 5-HT2C receptor (Homo sapiens, UniProt P28335).
T3 sequence (P28335 33-458): T1 sequence (P28335 33-458 S310K) with K278S

Changes are numbered by the printed parent chain. Like-named read-outs stand apart in the source and are kept apart here.

As for `Cn1cc(Br)c(-c2cccc(NC(=O)Nc3ccc(OC(F)(F)F)cc3)c2)n1` [Compound 103487, N-[3-(4-bromo-1-methylpyrazol-3-yl)phenyl][{(4-trifluoromethoxy)phenyl}amino]carboxamide], the inhibition (commonly the relative decrease from the control value, in per cent) at 10 µM was -1% in experiment [1] (read-out: GTPγS AP-1 Percent Inhibition Relative To Positive Control (Primary)) and 31% in experiment [1] (read-out: GTPγS AP-1 Percent Inhibition Relative To Positive Control (Reconfirm)).

On to `COc1ccc(OC(=O)Nc2cccc(-c3nn(C)cc3Br)c2)cc1` [Compound 116100, N-[3-(4-bromo-1-methylpyrazol-3-yl)phenyl][4-methoxyphenoxy]carboxamide], for which the IC50 (commonly the concentration needed to halve the response being measured) in experiment [2] was determined as 0.0003 µM. Besides, the “displacement of I125-LSD from cortex” value in experiment [3] is “selectively displace the I^125 -LSD from the cortex (5HT2A)”.

Consider `Cn1cc(Br)c(-c2cccc(NC(=O)c3cccs3)c2)n1` [Compound 116102, N-[3-(4-bromo-1-methylpyrazol-3-yl)phenyl][2-thienyl]carboxamide], for which the amphetamine-stimulated locomotion result in experiment [4] (s.c., 0.1, 1.0, 5.0, 10.0 mg/kg, d-amphetamine sulfate 1.0 mg/kg, photobeam breaks) is “with exception of the highest dose (10 mg/kg), in vivo, the tested doses of Compound 116102 evidenced a decrease in the amphetamine-stimulated locomotion”. In experiment [4] (s.c., 0.1-10.0 mg/kg, FIGS. 17A-C), the “dose-response pattern of locomotor activity” value is recorded as “"inverted U" shaped pattern”.

As for `CC(C)c1ccc(NC(=O)Nc2cccc(-c3nn(C)cc3Br)c2)cc1` [Compound 116110, {[3-(4-bromo-1-methylpyrazol-3-yl)phenyl]amino}-N-[4-(methylethyl)phenyl]carboxamide], in experiment [5], the IC50 came out at 338 nM.

Molecule `Cn1cc(Br)c(-c2cccc(NC(=O)OC(C)(C)C)c2)n1` [Compound 116192] had an IC50 in experiment [2] of 0.057 µM.

In experiment [1], `CSc1ccc2c(c1)C(N1CCN(C)CC1)Cc1ccccc1S2` (stereo not shown) [Methiothepin] came in with an IC50 of 20.4 nM.

The molecule `Clc1ccc2c(c1)N=C(N1CCNCC1)c1ccccc1N2` [Normethylclozapin] had an IC50 in experiment [1] of 21.4 nM.

As for `CN1CCN2c3ccccc3Cc3ccccc3C2C1` (stereo not shown) [mianserin], in experiment [1] (FIG. 10, AP-1 receptors in 293T cells, mianserin 30 μM, Wallac scintistrips), the “[35S]GTPγS binding, serotonin stimulation and inhibition by mianserin” value was “inhibition”. Also, the “inhibition of serotonin-stimulated [35S]GTPγS binding” value in experiment [6] (30 μM (FIG. 9), FIG. 10 on Wallac scintistrips) was “inhibits this response”. Besides, the “effect on basal constitutive [35S]GTPγS binding” value in experiment [6] (FIG. 10, membranes expressing endogenous human 5-HT2C receptor) is listed as “partial inverse agonist”.
